Test results reported in US7176234B2, “Derivatives of gambogic acid and analogs as activators of caspases and inducers of apoptosis” (priority 2002, dated 2007).
Entries after “also recorded” stand apart in the source; their conditions may differ. Read-outs that look alike come from different tables or passages of the source.

Experiments:
T-47D = assay: Caspase cascade activation / apoptosis induction assay (N-(Ac-DEVD)-N'-ethoxycarbonyl-R110 substrate) in T-47D cells; format: cell-based, Human; details: T47D cells
Method: Human breast cancer cell lines T-47D and ZR-75-1 were grown according to media component mixtures designated by American Type Culture Collection+10% FCS (Invitrogen Corporation), in a 5% CO2-95% humidity incubator at 37° C. T-47D and ZR-75-1 cells were maintained at a cell density between 30 and 80% confluency and for HL-60 at a cell density of 0.1 to 0.6×10^6 cells/ml. Cells were harvested at 600×g and resuspended at 0.65×10^6 cells/mL into appropriate media+10% FCS. An aliquot of 45 μl of cells was added to a well of a 96-well microtiter plate containing 5 μl of a 10% DMSO in RPMI-1640 media solution containing 1.6 to 100 μM of gambogic acid or other test compound (0.16 to 10 μM final). An aliquot of 45 μl of cells was added to a well of a 96-well microtiter plate containing […] of a 10% DMSO in RPMI-1640 media solution without test compound as the control sample. The samples were mixed by agitation and then incubated at 37° C. for 24 h in a 5% CO2-95% humidity incubator. After incubation, the samples were removed from the incubator and 50 μl of a solution containing 20 μM of N-(Ac-DEVD)-N′-ethoxycarbonyl-R110 fluorogenic substrate SEQ ID NO:1 (Cytovia, Inc.; U.S. Pat. No. 6,335,429), 20% sucrose (Sigma), 20 mM DTT (Sigma), 200 mM NaCl (Sigma), 40 mM Na PIPES buffer pH 7.2 (Sigma), and 500 μg/mL lysolecithin (Calbiochem) was added. The samples were mixed by agitation and incubated at room temperature. Using a fluorescent plate reader (Model 1420 Wallac Instruments), an initial reading (T=0) was made approximately 1–2 min after addition of the substrate solution, employing excitation at 485 nm and emission at 530 nm, to determine the background fluorescence of the control sample. After approximately 3 h of incubation, the samples were read for fluorescence as above (T=3 h).
The Relative Fluorescence Unit values (RFU) were used to calculate the sample readings as follows: RFU(T=3h)−Control RFU(T=0)=Net RFU(T=3h)
The activity of caspase cascade activation was determined by the ratio of the net RFU value for derivatives of gambogic acid to that of control samples. The EC50 (nM) was determined by a sigmoidal dose-response calculation (Prism 2.0, GraphPad Software Inc.).
Methyl 9,10-dihydro-10-morpholinyl-gambogate and gambogic acid were assayed as described in Example 28 in T47D cells. The samples of cells and testing compound were incubated for 5 h and 24 h, respectively. Table II summarizes the caspase activity (Ratio) and potency (EC50) of methyl 9,10-dihydro-10-morpholinyl-gambogate (compound B) in the 5 h and 24 h assays, in comparison with that of gambogic acid (compound A).

[1] = Conversion of methyl 9,10-dihydro-10-morpholinyl-gambogate to methyl gambogate in biological media (HPLC); format: physicochemical
Method: A solution of methyl 9,10-dihydro-10-morpholinyl-gambogate in 87.5% RPMI 1640 biological Media (Invitrogen Corporation, Carlsbad, Calif.), 5.6% EtOH, 1.3% DMSO, and 5.6% Cremophor EL at a concentration of 5 mg/ml was stored at 37° C. The amount of methyl 9,10-dihydro-10-morpholinyl-gambogate (compound B) and methyl gambogate (compound C) was measured by integration of the peak area. The HPLC was run in the Beckman System Gold with 32 Karate software under the following conditions: […]

ICR (CD-1) mice = assay: Maximum tolerated dose (MTD) in mice, I.V.; format: in vivo; details: mouse, in vivo
Method: For acute toxicity studies, 3 ICR (CD-1) mice were used per each dose group. Animals were given a single bolus injection in the tail vein with approximately 100 μl volume of compound formulation or vehicle formulation. Mice body weights were measured daily along with daily observation for clinical abnormalities. The maximum tolerated dose (MTD) was defined as the dose that results in less than 10% decrease in body weight with no clinical abnormalities.
For multiple dose studies, the animals were dosed once a day for 5 days.
Table IV summarizes the MTD of gambogic acid and methyl 9,10-dihydro-10-morpholinyl-gambogate in mice by I.V. administration.

[2] = Pharmacokinetic studies in mice (plasma, LC/MS/MS); format: in vivo, ICR mice; details: mice, single I.V. dose 50 mg/kg
Method: ICR mice were administered a single dose of drug into the tail vein. At each time point, 3 animals were sacrificed and the blood was withdrawn by cardiac puncture. The blood cells were spun down and the plasma was collected and frozen immediately in liquid nitrogen. For sample processing, the plasma was thawed and extraction solvent was added along with an internal standard to assess recoveries. The samples were vortexed followed by centrifugation, and the extraction solution was collected and subjected to LC/MS/MS analysis to identify and quantitate the compound plasma concentration. The levels of compound from the three animals at each time point were averaged and the pharmacokinetic parameters calculated using WinNonLin program. Table V summarized the major PK parameters.

MX-1 (Breast cancer) = assay: Efficacy in human tumor xenograft mouse model MX-1; format: in vivo, human tumor in CD1 nu/nu mice; details: MX-1 xenograft, 50 mg/kg, every day, I.V.
Method: (§1) CD1 nu/nu mice were used. Viable tumor bits of transplantable human xenografts approximately 50 mg of trocar or cultured human tumor cells (nx106 cells?) were implanted subcutaneously into the flank region of mice and tumors were allowed to grow to the desired average size of 100 mg. The mice were measured for tumor size and those within the accepted tumor range of 75–125 mg, were randomized into control and treatment groups with 8–9 mice per group. Treatment was initiated on these groups which have an average starting tumor size of 100 mg. The control group was injected with the vehicle used to dissolve the drug. Injections were I.V. via the tail vein. Tumor measurements were taken every other day along with weights of animals and all animals were observed daily for survival. Tumor size was calculated by the equation of: Tumor volume=(length×width^2)/2.

[3] = tested on: SW620 (colorectal cancer); assay: Efficacy in human tumor xenograft mouse model SW620; format: in vivo, human tumor in CD1 nu/nu mice; details: 75 mg/kg, every day, I.V.
Method: as §1

[4] = tested on: human tumor xenograft models; assay: Efficacy studies in human tumor xenograft models (text summary, model not named); format: in vivo, human tumor in nu/nu mice
Method: as §1

With `COC(=O)C(C)=CCC12OC(C)(C)C3CC(C1=O)C(N1CCOCC1)C1C(=O)c4c(O)c5c(c(CC=C(C)C)c4OC132)OC(C)(CCC=C(C)C)C=C5` (stereo not drawn) [B, Methyl 9,10-dihydro-10-morpholinyl-gambogate] the “Activity in the caspase activation / apoptosis induction assay (in words), 5 h” value (T-47D; 5 h assay) was “not active”, the “Caspase activity (Ratio), 5 h” value (T-47D; 5 h assay) was 1.2 and the EC50 (T-47D; 5 h assay, read-out: Caspase potency EC50, 5 h) was > 10 µM. For the same compound, the “Activity in the caspase activation / apoptosis induction assay (in words), 24 h” value (T-47D; 24 h assay) was “active”, the “Caspase activity (Ratio), 24 h” value (T-47D; 24 h assay) was 19 and the EC50 (T-47D; 24 h assay, read-out: Caspase potency EC50, 24 h) was 3.8 µM. The “Conversion to methyl gambogate (reversal of Michael addition) in biological media (in words)” value ([1]; 37° C., RPMI biological media) was “reverse to methyl gambogate; also recorded: converted slowly”, the “Amount in biological media, 0 h” value ([1]; solution of compound B 5 mg/ml in 87.5% RPMI 1640, 37° C., HPLC peak area, 0 h) was 92 and the “Amount in biological media, 2 h” value ([1]; solution of compound B 5 mg/ml in 87.5% RPMI 1640, 37° C., HPLC peak area, 2 h) was 92. For the same compound, the “Amount in biological media, 18 h” value ([1]; solution of compound B 5 mg/ml in 87.5% RPMI 1640, 37° C., HPLC peak area, 18 h) was 72, the “Amount in biological media, 48 h” value ([1]; solution of compound B 5 mg/ml in 87.5% RPMI 1640, 37° C., HPLC peak area, 48 h) was 49 and the “Amount in biological media, 90 h” value ([1]; solution of compound B 5 mg/ml in 87.5% RPMI 1640, 37° C., HPLC peak area, 90 h) was 28. For the same compound, the “Acute MTD” value (ICR (CD-1) mice) was >100 mg/kg, the Injection site toxicity (ICR (CD-1) mice) was “substantially reduced” and the “Multiple Dose MTD” value (ICR (CD-1) mice; iv) was “Once a day, 5 doses: >100 mg/kg”. The “Systemic toxicity / tolerability (in words)” value (ICR (CD-1) mice; iv) was “significantly less systemic toxicity than gambogic acid”, the “CL, Clearance” value [2] was 2.33 mL/min/kg and the “T1/2, Terminal half-life” value [2] was 27.6 h. For the same compound, the “Vss, Vol. of distribution” value [2] was 2.12 L/kg, the “AUC (0-inf), Area under the curve” value ([2]; plasma) was 353,021 ng-h/ml and the “% Tumor reduction” value (MX-1 (Breast cancer)) was 60%. The “% Tumor reduction” value [3] was 58%, the “Body weight loss / behavioral changes in efficacy studies” value ([4]; several human tumor xenograft models) was “no significant body weight loss or abnormal behavioral changes” and the “Efficacy (in words)” value ([4]; summary of Table VI, gambogic acid at its maximal tolerable dose) was “good efficacy”.
